Measurements as given in US20080318943A1, “Compounds and Uses Thereof - 848” (ASTRAZENECA AB, priority 2007, published 2008).

How the values were obtained:
GABAA receptor α1β2γ2 = target: T1, GABAA receptor α1β2γ2 (Homo sapiens, UniProt P14867+P18507); assay: Two-electrode voltage-clamp potentiation of GABA EC10 current in Xenopus oocytes, GABAA1; format: cell-based; conditions: percentage potentiation of GABA EC10 current divided by that of diazepam
T1 construct: expressed in transfected cells; host or cells: Xenopus laevis oocytes injected with cRNA
T1 sequence (P14867 28-456): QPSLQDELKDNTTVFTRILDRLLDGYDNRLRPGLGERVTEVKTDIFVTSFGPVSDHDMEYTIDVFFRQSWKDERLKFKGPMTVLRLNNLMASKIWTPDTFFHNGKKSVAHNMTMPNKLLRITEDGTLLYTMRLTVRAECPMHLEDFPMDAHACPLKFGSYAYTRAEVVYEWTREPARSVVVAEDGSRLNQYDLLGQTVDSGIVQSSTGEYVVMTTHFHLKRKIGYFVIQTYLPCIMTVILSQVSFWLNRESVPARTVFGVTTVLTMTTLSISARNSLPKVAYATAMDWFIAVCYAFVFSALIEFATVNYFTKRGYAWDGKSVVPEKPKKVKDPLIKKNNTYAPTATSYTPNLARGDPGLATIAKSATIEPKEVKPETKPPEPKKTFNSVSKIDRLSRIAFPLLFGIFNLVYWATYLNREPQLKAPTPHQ
T1 sequence (P47870 25-512 partner limits assumed): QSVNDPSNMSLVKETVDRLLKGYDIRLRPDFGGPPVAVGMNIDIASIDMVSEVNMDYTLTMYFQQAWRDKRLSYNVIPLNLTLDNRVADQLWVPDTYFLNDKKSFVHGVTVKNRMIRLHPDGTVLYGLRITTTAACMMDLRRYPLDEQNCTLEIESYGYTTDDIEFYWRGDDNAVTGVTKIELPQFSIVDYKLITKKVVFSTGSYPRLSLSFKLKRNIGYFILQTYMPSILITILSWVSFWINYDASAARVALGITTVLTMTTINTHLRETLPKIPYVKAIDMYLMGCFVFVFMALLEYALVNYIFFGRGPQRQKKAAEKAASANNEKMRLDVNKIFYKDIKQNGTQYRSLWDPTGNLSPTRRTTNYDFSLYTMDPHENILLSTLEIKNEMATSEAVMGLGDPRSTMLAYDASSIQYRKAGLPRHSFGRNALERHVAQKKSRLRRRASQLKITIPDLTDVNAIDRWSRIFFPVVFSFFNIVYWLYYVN
T1 sequence (P18507 40-475): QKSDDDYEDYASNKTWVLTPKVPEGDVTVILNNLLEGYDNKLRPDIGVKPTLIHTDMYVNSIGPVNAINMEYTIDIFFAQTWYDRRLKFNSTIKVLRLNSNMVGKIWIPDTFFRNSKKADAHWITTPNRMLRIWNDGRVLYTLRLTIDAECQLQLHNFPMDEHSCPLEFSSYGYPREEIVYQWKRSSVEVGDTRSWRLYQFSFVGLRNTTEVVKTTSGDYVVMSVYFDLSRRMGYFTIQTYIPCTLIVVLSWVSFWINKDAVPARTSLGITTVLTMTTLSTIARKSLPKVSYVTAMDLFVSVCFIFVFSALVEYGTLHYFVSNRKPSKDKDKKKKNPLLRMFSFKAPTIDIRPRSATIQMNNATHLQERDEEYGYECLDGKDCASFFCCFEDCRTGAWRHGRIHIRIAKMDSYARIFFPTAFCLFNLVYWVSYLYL
Summary of the method: (§1)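 Human GABAA receptors expressed in Xenopus oocytes by cRNA injection (α:β:γ molar ratio ~1:1:10 for α1β2γ2, 1:1:1 for α2β3γ2), recorded 2-10 days later by two-electrode voltage clamp at −60 mV in ND-96, pH 7.5. Modulator preapplied 30 s before GABA at per-oocyte EC10. Peak-current percent potentiation over GABA alone, normalised to diazepam.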

[1] = target: T2, GABAA2 receptors (α2, β3, γ2 receptor subunits transfected into Sf9 cells) (Homo sapiens, UniProt P18507+P47869); assay: GABAA2 Binding Method ([3H]-Flunitrazepam displacement); conditions: [3H]-Flunitrazepam ~2 nM, α2β3γ2 Sf9 membranes, 1 hr at 4° C.
T2 construct: host or cells: Sf9 cells (membranes)
T2 sequence (P47869 29-451): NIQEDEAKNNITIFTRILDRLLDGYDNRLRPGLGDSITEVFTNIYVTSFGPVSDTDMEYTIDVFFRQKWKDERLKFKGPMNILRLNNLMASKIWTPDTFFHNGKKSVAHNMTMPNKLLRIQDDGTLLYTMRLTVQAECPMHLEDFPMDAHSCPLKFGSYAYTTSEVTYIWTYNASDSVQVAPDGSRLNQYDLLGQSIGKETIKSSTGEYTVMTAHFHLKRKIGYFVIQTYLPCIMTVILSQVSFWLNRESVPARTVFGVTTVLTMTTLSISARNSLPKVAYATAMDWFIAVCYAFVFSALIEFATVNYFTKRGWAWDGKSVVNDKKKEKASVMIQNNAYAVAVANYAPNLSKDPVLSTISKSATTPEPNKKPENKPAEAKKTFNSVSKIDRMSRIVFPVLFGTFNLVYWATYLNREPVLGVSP
T2 sequence (P28472 26-473 partner): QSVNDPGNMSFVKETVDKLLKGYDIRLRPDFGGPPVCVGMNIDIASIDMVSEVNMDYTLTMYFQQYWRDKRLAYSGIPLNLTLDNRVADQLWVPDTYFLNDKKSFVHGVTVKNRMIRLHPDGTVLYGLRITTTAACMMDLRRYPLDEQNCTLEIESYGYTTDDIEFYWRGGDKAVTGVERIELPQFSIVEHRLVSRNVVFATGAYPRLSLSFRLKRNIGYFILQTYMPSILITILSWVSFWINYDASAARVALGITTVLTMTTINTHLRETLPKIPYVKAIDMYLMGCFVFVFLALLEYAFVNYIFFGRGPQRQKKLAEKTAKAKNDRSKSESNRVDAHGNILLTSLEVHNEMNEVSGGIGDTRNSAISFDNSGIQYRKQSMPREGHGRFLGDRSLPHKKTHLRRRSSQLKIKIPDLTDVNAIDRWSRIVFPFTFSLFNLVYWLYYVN
T2 sequence (P18507 40-475): as the sequence (P18507 40-475) above
Summary of the method: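 Membranes from Sf9 cells expressing α2β3γ2 GABAA receptors incubated with ~2 nM (final) [3H]-flunitrazepam and test compound 1 h at 4 °C, then filtered on GF/B plates with cold-buffer washes. Flumazenil-defined controls; percent of control, IC50 and Ki calculated.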

GABAA receptor α2β3γ2 = target: T3, GABAA receptor α2β3γ2 (Homo sapiens, UniProt P18507+P47869); assay: Two-electrode voltage-clamp potentiation of GABA EC10 current in Xenopus oocytes, GABAA2; format: cell-based; conditions: percentage potentiation of GABA EC10 current divided by that of diazepam
T3 construct: expressed in transfected cells; host or cells: Xenopus laevis oocytes injected with cRNA
T3 sequence (P47869 29-451): as the sequence (P47869 29-451) above
T3 sequence (P28472 26-473 partner): as the sequence (P28472 26-473 partner) above
T3 sequence (P18507 40-475): as the sequence (P18507 40-475) above
Summary of the method: as §1

CCN1Cc2nc3c(-c4cc(Cl)ccc4OC)c(F)ccc3c(N)c2C1=O [9-Amino-5-(5-chloro-2-methoxyphenyl)-2-ethyl-6-fluoro-2,3-dihydropyrrolo[3,4-b]quinolin-1-one]
Relative Potentiation for GABAA1 (GABAA receptor α1β2γ2): 0.033 | Ki [1]: 2.22 nM | Relative Potentiation for GABAA2 (GABAA receptor α2β3γ2): 0.27

COc1cccc(F)c1-c1c(F)ccc2c(N)c3c(nc12)CN(C)C3=O [9-Amino-6-fluoro-5-(2-fluoro-6-methoxyphenyl)-2-methyl-2,3-dihydropyrrolo[3,4-b]quinolin-1-one]
Relative Potentiation for GABAA1 (GABAA receptor α1β2γ2): −0.02 | Ki [1]: 8.14 nM | Relative Potentiation for GABAA2 (GABAA receptor α2β3γ2): 0.088

COc1ncc(-c2cccc3c(N)c4c(nc23)CN(Cc2ccc(OC)c(OC)c2)C4=O)c(OC)n1 [9-amino-2-(3,4-dimethoxybenzyl)-5-(2,4-dimethoxypyrimidin-5-yl)-2,3-dihydro-1H-pyrrolo[3,4-b]quinolin-1-one]
Relative Potentiation for GABAA1 (GABAA receptor α1β2γ2): 0.19 | Ki [1]: 13.5 nM | Relative Potentiation for GABAA2 (GABAA receptor α2β3γ2): 0.42

COc1ccc(CN2Cc3nc4c(-c5cnccc5OC)cccc4c(N)c3C2=O)cc1OC [9-amino-2-(3,4-dimethoxybenzyl)-5-(4-methoxypyridin-3-yl)-2,3-dihydro-1H-pyrrolo[3,4-b]quinolin-1-one]
Relative Potentiation for GABAA1 (GABAA receptor α1β2γ2): 0.23 | Ki [1]: 1.5 nM | Relative Potentiation for GABAA2 (GABAA receptor α2β3γ2): 0.37

COc1ccc(CN2Cc3nc4c(-c5cnccc5OC)cccc4c(N)c3C2=O)cc1 [9-amino-2-(4-methoxybenzyl)-5-(4-methoxypyridin-3-yl)-2,3-dihydro-1H-pyrrolo[3,4-b]quinolin-1-one]
Relative Potentiation for GABAA1 (GABAA receptor α1β2γ2): 0.32 | Ki [1]: 3.35 nM | Relative Potentiation for GABAA2 (GABAA receptor α2β3γ2): 0.52

Cc1cccc(C)c1-c1cccc2c(N)c3c(nc12)CN(C1CC1)C3=O [9-amino-2-cyclopropyl-5-(2,6-dimethylphenyl)-2,3-dihydro-1H-pyrrolo[3,4-b]quinolin-1-one]
Relative Potentiation for GABAA1 (GABAA receptor α1β2γ2): −0.07 | Ki [1]: 23.9 nM | Relative Potentiation for GABAA2 (GABAA receptor α2β3γ2): 0.025

COc1ncc(-c2cccc3c(N)c4c(nc23)CN(C2CC2)C4=O)cc1C [9-amino-2-cyclopropyl-5-(6-methoxy-5-methylpyridin-3-yl)-2,3-dihydro-1H-pyrrolo[3,4-b]quinolin-1-one]
Relative Potentiation for GABAA1 (GABAA receptor α1β2γ2): 0.088 | Ki [1]: 55.3 nM | Relative Potentiation for GABAA2 (GABAA receptor α2β3γ2): 0.08

COc1ccc(-c2c(F)ccc3c(N)c4c(nc23)CN(C2CC2)C4=O)c(F)c1 [9-amino-2-cyclopropyl-6-fluoro-5-(2-fluoro-4-methoxyphenyl)-2,3-dihydro-1H-pyrrolo[3,4-b]quinolin-1-one]
Relative Potentiation for GABAA1 (GABAA receptor α1β2γ2): −0.036 | Ki [1]: 7.27 nM | Relative Potentiation for GABAA2 (GABAA receptor α2β3γ2): 0.055

CCN1Cc2nc3c(-c4ccc(OC)cc4F)cccc3c(N)c2C1=O [9-amino-2-ethyl-5-(2-fluoro-4-methoxyphenyl)-2,3-dihydro-1H-pyrrolo[3,4-b]quinolin-1-one]
Relative Potentiation for GABAA1 (GABAA receptor α1β2γ2): −0.008 | Ki [1]: 7.14 nM | Relative Potentiation for GABAA2 (GABAA receptor α2β3γ2): 0.036

CCN1Cc2nc3c(-c4cccc(F)c4OC)cccc3c(N)c2C1=O [9-amino-2-ethyl-5-(3-fluoro-2-methoxyphenyl)-2,3-dihydro-1H-pyrrolo[3,4-b]quinolin-1-one]
Relative Potentiation for GABAA1 (GABAA receptor α1β2γ2): 0.052 | Ki [1]: 22.6 nM | Relative Potentiation for GABAA2 (GABAA receptor α2β3γ2): 0.068

CCN1Cc2nc3c(-c4ccc(OC)c(F)c4)cccc3c(N)c2C1=O [9-amino-2-ethyl-5-(3-fluoro-4-methoxyphenyl)-2,3-dihydro-1H-pyrrolo[3,4-b]quinolin-1-one]
Relative Potentiation for GABAA1 (GABAA receptor α1β2γ2): 0.012 | Ki [1]: 42.5 nM | Relative Potentiation for GABAA2 (GABAA receptor α2β3γ2): 0.065

CCN1Cc2nc3c(-c4ccc(OC)cc4F)c(F)ccc3c(N)c2C1=O [9-amino-2-ethyl-6-fluoro-5-(2-fluoro-4-methoxyphenyl)-2,3-dihydro-1H-pyrrolo[3,4-b]quinolin-1-one]
Relative Potentiation for GABAA1 (GABAA receptor α1β2γ2): −0.04 | Ki [1]: 1.49 nM | Relative Potentiation for GABAA2 (GABAA receptor α2β3γ2): 0.05

CCN1Cc2nc3c(-c4ccccc4F)c(F)ccc3c(N)c2C1=O [9-amino-2-ethyl-6-fluoro-5-(2-fluorophenyl)-2,3-dihydro-1H-pyrrolo[3,4-b]quinolin-1-one]
Relative Potentiation for GABAA1 (GABAA receptor α1β2γ2): −0.04 | Ki [1]: 1.51 nM | Relative Potentiation for GABAA2 (GABAA receptor α2β3γ2): 0.038

CCCN1Cc2nc3c(-c4cccc(C)c4)cccc3c(N)c2C1=O [9-amino-2-propyl-5-(3-methylphenyl)-2,3-dihydro-1H-pyrrolo[3,4-b]quinolin-1-one]
Relative Potentiation for GABAA1 (GABAA receptor α1β2γ2): 0.38 | Ki [1]: 44.6 nM | Relative Potentiation for GABAA2 (GABAA receptor α2β3γ2): 0.29

COc1ccc(CN2Cc3nc4c(-c5cc(C)nn5C)cccc4c(N)c3C2=O)cc1 [9-amino-5-(1,3-dimethyl-1H-pyrazol-5-yl)-2-(4-methoxybenzyl)-2,3-dihydro-1H-pyrrolo[3,4-b]quinolin-1-one]
Relative Potentiation for GABAA1 (GABAA receptor α1β2γ2): 0.45 | Ki [1]: 10.3 nM | Relative Potentiation for GABAA2 (GABAA receptor α2β3γ2): 0.64

CCCN1Cc2nc3c(-c4cc(C)nn4C)cccc3c(N)c2C1=O [9-amino-5-(1,3-dimethyl-1H-pyrazol-5-yl)-2-propyl-2,3-dihydro-1H-pyrrolo[3,4-b]quinolin-1-one]
Relative Potentiation for GABAA1 (GABAA receptor α1β2γ2): 0.49 | Ki [1]: 21.5 nM | Relative Potentiation for GABAA2 (GABAA receptor α2β3γ2): 0.57

CCN1Cc2nc3c(-c4ccc(F)cc4F)c(F)ccc3c(N)c2C1=O [9-amino-5-(2,4-difluorophenyl)-2-ethyl-6-fluoro-2,3-dihydro-1H-pyrrolo[3,4-b]quinolin-1-one]
Relative Potentiation for GABAA1 (GABAA receptor α1β2γ2): −0.038 | Ki [1]: 3.85 nM | Relative Potentiation for GABAA2 (GABAA receptor α2β3γ2): 0.064

CCCN1Cc2nc3c(-c4ccc(OC)cc4OC)cccc3c(N)c2C1=O [9-amino-5-(2,4-dimethoxyphenyl)-2-propyl-2,3-dihydro-1H-pyrrolo[3,4-b]quinolin-1-one]
Relative Potentiation for GABAA1 (GABAA receptor α1β2γ2): 0.25 | Ki [1]: 49.8 nM | Relative Potentiation for GABAA2 (GABAA receptor α2β3γ2): 0.31

CCCN1Cc2nc3c(-c4cc(Cl)ccc4Cl)cccc3c(N)c2C1=O [9-amino-5-(2,5-dichlorophenyl)-2-propyl-2,3-dihydro-1H-pyrrolo[3,4-b]quinolin-1-one]
Relative Potentiation for GABAA1 (GABAA receptor α1β2γ2): 0.31 | Ki [1]: 11.8 nM | Relative Potentiation for GABAA2 (GABAA receptor α2β3γ2): 0.32

CCCN1Cc2nc3c(-c4cc(F)ccc4F)cccc3c(N)c2C1=O [9-amino-5-(2,5-difluorophenyl)-2-propyl-2,3-dihydro-1H-pyrrolo[3,4-b]quinolin-1-one]
Relative Potentiation for GABAA1 (GABAA receptor α1β2γ2): 0.21 | Ki [1]: 34.8 nM | Relative Potentiation for GABAA2 (GABAA receptor α2β3γ2): 0.33

CCCN1Cc2nc3c(-c4cc(C)ccc4C)cccc3c(N)c2C1=O [9-amino-5-(2,5-dimethylphenyl)-2-propyl-2,3-dihydro-1H-pyrrolo[3,4-b]quinolin-1-one]
Relative Potentiation for GABAA1 (GABAA receptor α1β2γ2): 0.22 | Ki [1]: 56.8 nM | Relative Potentiation for GABAA2 (GABAA receptor α2β3γ2): 0.2

CCN1Cc2nc3c(-c4c(F)cc(OC)cc4F)c(F)ccc3c(N)c2C1=O [9-amino-5-(2,6-difluoro-4-methoxyphenyl)-2-ethyl-6-fluoro-2,3-dihydro-1H-pyrrolo[3,4-b]quinolin-1-one]
Relative Potentiation for GABAA1 (GABAA receptor α1β2γ2): −0.09 | Ki [1]: 4.5 nM | Relative Potentiation for GABAA2 (GABAA receptor α2β3γ2): −0.02

CCCN1Cc2nc3c(-c4ccc(C)nc4C)cccc3c(N)c2C1=O [9-amino-5-(2,6-dimethylpyridin-3-yl)-2-propyl-2,3-dihydro-1H-pyrrolo[3,4-b]quinolin-1-one]
Relative Potentiation for GABAA1 (GABAA receptor α1β2γ2): 0.45 | Ki [1]: 2.63 nM | Relative Potentiation for GABAA2 (GABAA receptor α2β3γ2): 0.41

CCCN1Cc2nc3c(-c4cc(C)cnc4Cl)cccc3c(N)c2C1=O [9-amino-5-(2-chloro-5-methylpyridin-3-yl)-2-propyl-2,3-dihydro-1H-pyrrolo[3,4-b]quinolin-1-one]
Relative Potentiation for GABAA1 (GABAA receptor α1β2γ2): 0.44 | Ki [1]: 6.63 nM | Relative Potentiation for GABAA2 (GABAA receptor α2β3γ2): 0.61

COc1cccc(Cl)c1-c1cccc2c(N)c3c(nc12)CN(C1CCC1)C3=O [9-amino-5-(2-chloro-6-methoxyphenyl)-2-cyclobutyl-2,3-dihydro-1H-pyrrolo[3,4-b]quinolin-1-one]
Relative Potentiation for GABAA1 (GABAA receptor α1β2γ2): −0.15 | Ki [1]: 2.22 nM | Relative Potentiation for GABAA2 (GABAA receptor α2β3γ2): 0.051

COc1cccc(Cl)c1-c1cccc2c(N)c3c(nc12)CN(C1CC1)C3=O [9-amino-5-(2-chloro-6-methoxyphenyl)-2-cyclopropyl-2,3-dihydro-1H-pyrrolo[3,4-b]quinolin-1-one]
Relative Potentiation for GABAA1 (GABAA receptor α1β2γ2): −0.1 | Ki [1]: 14.9 nM | Relative Potentiation for GABAA2 (GABAA receptor α2β3γ2): 0.052
